The subject of data set [1] is serum antibodies to equine infectious anemia virus. In words: Fluorescence polarization (FP) assay of fluorescein-labeled peptides with diluted horse serum. In kind it is binding. The conditions noted are these: for FP interaction with EIAV-positive sera: EIAV-positive sera incl. R51 FP-nonreactive samples; for FP signal of R51 with positive sera: approx. 2 nM peptide, 1:100 serum, 50 mM sodium phosphate pH 6.8, 20 min, 5CF vs 6CF label; for FP reactivity with experimentally infected serum: Pony 95 serum. The method, then: Several different buffer compositions and detergents were therefore tested for compatibility with horse serum. When horse serum was diluted 1:50 or 1:100 into 20-50 mM sodium phosphate without NaCl, this problem was virtually eliminated. […] Under the low-salt conditions, the polarization of peptide R51-5CF increased from 50 mP to over 200 mP with a 1:100 dilution of a strong positive EIAV antiserum from an experimental infection (Pony 95). Thus it was determined that the optimal buffer composition for the FP assay was 50 mM sodium phosphate, pH 6.8-7.0.
(§1) Fluorescence Polarization (FP) Measurements. The fluorescein-labeled peptides were evaluated for their suitability as probes for FP using an FPM-1 Fluorescence Polarization Analyzer (Jolley Consulting and Research, Grayslake, Ill.) batch mode with the following settings: PMT gain 80, heater off, single read. Serum was diluted 1:100 or 1:50 into 2 mL of buffer in 12×75 mm borosilicate glass tubes (VWR). After reading the blank, fluorescently labeled peptide was added to a final concentration of 1-2 nM (100K-200K total intensity) and incubated for at least 15 minutes. The FP of the sample was measured and expressed as millipolarization units (mP). Some of the sera were very dark, presumably due to hemolysis. If such a serum sample had low lamp feedback (<0.63), a two-fold further dilution was tested. Polarization data was output to a computer running the FPM-1 data collection software, then converted to an ASCII text file and imported into the Quattro Pro spreadsheet program (Corel, Ottawa, Ontario) for data analysis and graphing.
Because different fluorescein linkages can result in differences in sensitivity in the FP assay, R51 peptide was labeled with 6-carboxyfluorescein so the difference between the two labels could be ascertained. […] Peptides (approx. 2 nM) were incubated with a 1:100 dilution of serum in 50 mM sodium phosphate, pH 6.8, for 20 minutes. The results are shown in FIG. 2, in order of decreasing peptide length. In FIG. 2, black bars show the results for experimentally-infected (pony 95), hatched bars for field infected ([…]), gray bars for uninfected (Petite), and white bars for no serum added. […] As the R51-6CF probe was the most sensitive to the positive sera tested, 6-carboxyfluorescein is the preferred fluorophore. However, other fluorophores, such as rhodamine, BODIPY™ M, Texas Red™ and Lucifer yellow, could also be used. For a detailed listing of a variety of commercially available fluorophores, see Handbook of Fluorescent Probes and Research Chemicals, ed. Karen Larison, by Richard P. Haughland, Ph.D., 5th ed., 1992, published by Molecular Probes, Inc.
In general terms: In fluorescence polarisation assays a small probe gives low polarisation when free and higher when bound to something large.

Data set [2] has as its system anti-EIAV antibodies in horse sera. In words: Anti-fluorescein capture ELISA. In kind it is binding. The conditions noted are these: for ELISA reactivity with FP-nonreactive sera: sera 1:50, FP-nonreactors from Texas; for ELISA reactivity: Pony 95 and Lady sera; for reactivity in the anti-fluorescein ELISA: general statement of Example 3. The method, then: Anti-Fluorescein Capture ELISA. In order to measure antibody binding to test peptides without regard to their suitability for FP, an anti-fluorescein capture ELISA was used. To each well of an Immulon 2 HB 96-well plate (Dynex, Chantilly, Va.) was added 50 μL rabbit anti-fluorescein antibody (Molecular Probes), 3.5 μg/ml in 50 mM sodium bicarbonate, pH 9.6; the plates were sealed and incubated overnight. The wells were blocked with Blotto (5% nonfat dry milk, 5% normal bovine serum, 0.025% Tween 20 in PBS (PBST). The plates were then incubated with test horse sera, diluted 1:100 in Blotto, for 1 h at RT, washed as above, then incubated with anti-horse IgG(Fc)-HRP (United States Biochemical), diluted 1:10^5 in Blotto, for 1 h at RT and washed. The substrate, TM Blue Soluble reagent (200 μL/well; Intergen, Milford, Mass.) was added and incubated for 20 minutes with shaking, and the reaction stopped with the addition of 50 μL/well 1.0 N H2SO4 for 5 minutes with shaking. Absorbance at 450 nm was measured on a Dynex MR5000 microplate reader. Because each peptide caused a slightly different background absorbance, control wells containing no horse serum were included for each peptide tested.
Some of the sera from Missouri (4/10) could not be tested due to interference from a high level of hemolysis, resulting in low lamp feedback values. […] In order to confirm the serological status of FP-unreactive sera, they were tested in a western blot (data not shown) as well as in the antifluorescein-capture ELISA using the seven original peptides derived from the three major antigens mentioned above (FIG. 5). Sera (1:50 dilution) were tested for reactivity to four EIAV-derived, fluorescein-labeled peptides in an ELISA format as described in the methods. NHS, normal (uninfected) horse serum; Tx43 through Txll7, FP-nonreactive, Tx47 through pony 95, FP-reactive sera. Black bars, peptide R51F; hatched bars, R32; gray bars, pepl2; white bars, Sam50.
For orientation: In an ELISA, binding on a coated surface is turned into a signal by an enzyme label.

The nature of data set [3]: Behaviour of the R51 probe in solution (cyclization, dilution). The data set is classed as physicochemical. The method, then: Because R51 contains two Cys residues that may form a loop in the native protein, the differences in reactivity were assessed between linear or cyclized peptide (cyclic by virtue of an intramolecular disulfide bond).
The next data set has as its system anti-EIAV IgG. The experiment in a line: Fluorescence polarization of probe peptides with purified IgG from field-infected horse (Lady). The conditions noted are these: for change in FP with purified antibodies from field-infected animal: Lady IgG. In kind it is binding. The method, then:
Due to problems encountered with testing horse serum, the initial evaluation made use of purified IgG from a reference long-term, field-infected horse (Lady). Purified IgG from field infected horse serum (100 μg/ml) was incubated with the candidate probe peptides (2 nM) in PBS for 20 min. The results are shown in FIG. 1, wherein black bars indicate probe added to IgG and gray bars indicate probe in buffer alone. All peptides were the 5-carboxyfluorescein derivatives. […] The other peptides in the panel had only slight changes in polarization in the presence of Lady IgG.
as §1

No end group written: not given here. *: point of attachment. 5FAM = O=C1OC2(c3ccc(O)cc3Oc3cc(O)ccc32)c2ccc(C(=O)*)cc21 Where only a bound is given, the exact number is not on record here.

Consider “ADDWDNRHPLPNAPLVAPPQGPIPMT (Equine infectious anemia virus) [Sam50]”, for which the “FP interaction with EIAV-positive sera” value in data set [1] is listed as “insensitive to EIAV-positive sera”.

With “IGCIERTHVFCHTG (Equine infectious anemia virus) [R51]”, in data set [1] (cyclic by intramolecular disulfide bond, field isolates), the “sensitivity of cyclized vs linear peptide” value is on record as “more sensitive to field isolates than the linear form”. The “ELISA reactivity with FP-nonreactive sera” value in data set [2] was “no measurable antibody”. In addition, the precipitation of probe result in data set [3] (conditions that allow cyclization) is “prone to precipitation”. Further, the stability of peptide entry in data set [3] (upon dilution) is listed as “stable upon dilution”.

In the case of “R51-6CF: R51 peptide (SEQ ID NO 1) labeled with 6-carboxyfluorescein (IGCIERTHVFCHTG; cysteine pairing not given here; also: 6-carboxyfluorescein label, position not given here)”, in data set [1] (110 AGID-negative sera, 1:100 dilution), the “polarization values of negative serum samples” value is given as 73.6±3.0 mP. For the same substance, the “FP signal of R51 with positive sera” value in data set [1] is reported as above 300 mP. For the same substance, in data set [1] (measurable sera of 153 field-infected animals, 1:100 dilution, ~2 nM peptide), the “average mP value with field-infected sera” value was 150±55 mP.

Take “HPLPNAPLVAPPQGPIPMT (Equine infectious anemia virus) [Sam50H]”: the “FP interaction with EIAV-positive sera” value in data set [1] is recorded as “none of these analogs displayed a measurable interaction”.

Consider “APLVAPPQGPIPMT (Equine infectious anemia virus) [Sam50A]”, for which, in data set [1], the “FP interaction with EIAV-positive sera” value is listed as “none of these analogs displayed a measurable interaction”.

On to “KERQQVEETFNLI (Equine infectious anemia virus) [R32]”, for which the “change in FP with purified antibodies from field-infected animal” value in the data set with anti-EIAV IgG is recorded as “did not exhibit an increase in FP”. In data set [1], the “FP reactivity with experimentally infected serum” value is listed as “some reactivity”. Also, in data set [2], the ELISA reactivity entry is listed as “reacted very strongly”; the “reactivity in the anti-fluorescein ELISA” value was “strong and broad reactivity”; the “ELISA reactivity with FP-nonreactive sera” value is “no measurable antibody”.

Take “QQVEETFNLI (Equine infectious anemia virus) [R32QQ]”: the “maximum FP” value in data set [1] (1:100 dilution of pony 95, R32 length series, fluorescein-6-isothiocyanate label) is reported as above 200 mP. Further, in data set [1], the “FP reactivity with experimentally infected serum” value is given as “most sensitive peptide”.

Consider “R51-5CF: R51 peptide labeled at the N-terminus with 5-carboxyfluorescein (5FAM-IGCIERTHVFCHTG; cysteine pairing not given here)”, for which, in the data set on anti-EIAV IgG (probe 2 nM in PBS buffer alone, 5-carboxyfluorescein derivative), the free-peptide polarization level entry is reported as “about 60 mP”. Moreover, in the data set with anti-EIAV IgG (probe 2 nM, 60-100 μg/ml Lady IgG in PBS, 20 min), the “FP in the presence of Lady IgG” value is given as “around 140 MP”. In addition, in data set [1], the “FP signal of R51 with positive sera” value amounted to 220 mP. Moreover, the “FP reactivity with field-infected horse serum” value in data set [1] (field infected horses (Lady)) is reported as “sensitive to serum from field infected horses”. Also, the “polarization with strong positive EIAV antiserum” value in data set [1] (low-salt conditions, 1:100 dilution, experimental infection (Pony 95)) is “over 200 mP”. Also, the “polarization of peptide before serum” value in data set [1] (low-salt conditions, starting value) stood at 50 mP.

For the substance “LETWKLVKTSGVTPLPISSEANTGL (Equine infectious anemia virus) [Peptide 12]”, the “change in FP with purified antibodies from field-infected animal” value with anti-EIAV IgG was “did not exhibit an increase in FP”. Also, in data set [1], the “FP reactivity with experimentally infected serum” value is reported as “some reactivity”. Besides, in data set [2], the ELISA reactivity result is given as “reacted very strongly”; the “reactivity in the anti-fluorescein ELISA” value was “strong and broad reactivity”; the “ELISA reactivity with FP-nonreactive sera” value is on record as “bind only weakly”.

The values are drawn from patent US20020025512A1, “FLUORESCENCE POLARIZATION- BASED DIAGNOSTIC ASSAY FOR EQUINE INFECTIOUS ANEMIA VIRUS” (priority 1998, published 2002).
